Reference: ChEMBL document CHEMBL1201861, “Genomics of Drug Sensitity in Cancer screening data, Wellcome Trust Sanger Institute”

Experiments:
Test in all cases: cells
[1] = tested on: COR-L23; assay type: functional, cell-based; conditions: Homo sapiens;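 note: cell viability assay measuring how strongly compounds suppress growth of COR-L23 cells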
Description: SANGER: Inhibition of human COR-L23 cell growth in a cell viability assay.

[2] = tested on: Calu-3; assay type: functional, cell-based; conditions: Homo sapiens;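 note: growth inhibition of human Calu-3 cells, determined with a cell viability assay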
Description: SANGER: Inhibition of human Calu-3 cell growth in a cell viability assay.

[3] = tested on: Capan-2; assay type: functional, cell-based; conditions: Homo sapiens;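 note: Capan-2 cell growth inhibition, read out with a viability assay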
Description: SANGER: Inhibition of human Capan-2 cell growth in a cell viability assay.

[4] = tested on: DK-MG; assay type: functional, cell-based; conditions: Homo sapiens;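 note: growth inhibition of DK-MG cells, read out with a cell viability assay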
Description: SANGER: Inhibition of human DK-MG cell growth in a cell viability assay.

[5] = tested on: EPLC-272H; assay type: functional, cell-based; conditions: Homo sapiens
Description: SANGER: Inhibition of human EPLC-272H cell growth in a cell viability assay.

[6] = tested on: FTC-133; assay type: functional, cell-based; conditions: Homo sapiens
[7] = tested on: HCC38; assay type: functional, cell-based; conditions: Homo sapiens;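 note: cell viability assay on the human HCC38 cell line, with IC50 marking the concentration that inhibits cell growth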
Description: SANGER: Inhibition of human HCC38 cell growth in a cell viability assay.

[8] = tested on: HLE; assay type: functional, cell-based; conditions: Homo sapiens;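 note: growth inhibition of human HLE cells, read out by a cell viability assay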
Description: SANGER: Inhibition of human HLE cell growth in a cell viability assay.

[9] = tested on: HN; assay type: functional, cell-based; conditions: Homo sapiens
Description: SANGER: Inhibition of human HN cell growth in a cell viability assay.

[10] = tested on: HSC-3; assay type: functional, cell-based; conditions: Homo sapiens
Description: SANGER: Inhibition of human HSC-3 cell growth in a cell viability assay.

[11] = tested on: HT55; assay type: functional, cell-based; conditions: Homo sapiens;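 note: cell viability readout measuring growth inhibition of human HT55 cells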
Description: SANGER: Inhibition of human HT55 cell growth in a cell viability assay.

[12] = tested on: HuO9; assay type: functional, cell-based; conditions: Homo sapiens;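 note: growth inhibition of HuO9 cells, read out with a cell viability assay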
Description: SANGER: Inhibition of human HuO9 cell growth in a cell viability assay.

[13] = tested on: KU-19-19; assay type: functional, cell-based; conditions: Homo sapiens
Description: SANGER: Inhibition of human KU-19-19 cell growth in a cell viability assay.

[14] = tested on: LU-135; assay type: functional, cell-based; conditions: Homo sapiens
Description: SANGER: Inhibition of human LU-135 cell growth in a cell viability assay.

[15] = tested on: MDA-MB-175-VII; assay type: functional, cell-based; conditions: Homo sapiens
[16] = tested on: MG-63; assay type: functional, cell-based; conditions: Homo sapiens;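 note: growth inhibition of human MG-63 cells, read out with a cell viability assay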
Description: SANGER: Inhibition of human MG-63 cell growth in a cell viability assay.

[17] = tested on: MIA PaCa-2; assay type: functional, cell-based; conditions: Homo sapiens;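 note: growth inhibition of MIA PaCa-2 cells, read out with a cell viability assay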
Description: SANGER: Inhibition of human MIA-PaCa-2 cell growth in a cell viability assay.

[18] = tested on: MeWo; assay type: functional, cell-based; conditions: Homo sapiens;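 note: growth inhibition of MeWo cells, determined by a cell viability readout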
Description: SANGER: Inhibition of human Mewo cell growth in a cell viability assay.

[19] = tested on: NBsusSR; assay type: functional, cell-based; conditions: Homo sapiens;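 note: growth inhibition of the human cell line, read out with a cell viability assay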
Description: SANGER: Inhibition of human NBsusSR cell growth in a cell viability assay.

[20] = tested on: NCI-H1666; assay type: functional, cell-based; conditions: Homo sapiens;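 note: growth inhibition of the cell line, read out with a cell viability assay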
Description: SANGER: Inhibition of human NCI-H1666 cell growth in a cell viability assay.

[21] = tested on: RT-112; assay type: functional, cell-based; conditions: Homo sapiens
Description: SANGER: Inhibition of human RT-112 cell growth in a cell viability assay.

[22] = tested on: SK-MEL-24; assay type: functional, cell-based; conditions: Homo sapiens;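 note: growth inhibition read out by a cell viability assay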
Description: SANGER: Inhibition of human SK-MEL-24 cell growth in a cell viability assay.

[23] = tested on: SK-MEL-28; assay type: functional, cell-based; conditions: Homo sapiens;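 note: growth inhibition of human SK-MEL-28 cells, read out with a cell viability assay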
Description: SANGER: Inhibition of human SK-MEL-28 cell growth in a cell viability assay.

[24] = tested on: SW48; assay type: functional, cell-based; conditions: Homo sapiens;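 note: growth inhibition of SW48 cells, read out with a cell viability assay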
Description: SANGER: Inhibition of human SW48 cell growth in a cell viability assay.

[25] = tested on: T84; assay type: functional, cell-based; conditions: Homo sapiens;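 note: growth inhibition measured with a cell viability readout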
Description: SANGER: Inhibition of human T84 cell growth in a cell viability assay.

[26] = tested on: TCC-SUP; assay type: functional, cell-based; conditions: Homo sapiens;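 note: growth inhibition of TCC-SUP cells, read out with a cell viability assay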
Description: SANGER: Inhibition of human TCCSUP cell growth in a cell viability assay.

[27] = tested on: 786-0; assay type: functional, cell-based; conditions: Homo sapiens
Description: SANGER: Inhibition of human 786-0 cell growth in a cell viability assay.

[28] = tested on: BALL-1; assay type: functional, cell-based; conditions: Homo sapiens;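 note: growth inhibition of BALL-1 cells, read out with a cell viability assay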
Description: SANGER: Inhibition of human BALL-1 cell growth in a cell viability assay.

[29] = tested on: BHT-101; assay type: functional, cell-based; conditions: Homo sapiens
Description: SANGER: Inhibition of human BHT-101 cell growth in a cell viability assay.

[30] = tested on: CAL-27; assay type: functional, cell-based; conditions: Homo sapiens;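 note: Viability-based readout, IC50 reflecting inhibition of CAL-27 cell growth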
Description: SANGER: Inhibition of human CAL-27 cell growth in a cell viability assay.

[31] = tested on: CAL-39; assay type: functional, cell-based; conditions: Homo sapiens;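 note: cell viability assay measuring growth inhibition of CAL-39 cells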
Description: SANGER: Inhibition of human CAL-39 cell growth in a cell viability assay.

[32] = tested on: TI-73; assay type: functional, cell-based; conditions: Homo sapiens;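 note: cell viability assay measuring how much compounds suppress growth of the cultured cell line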
Description: SANGER: Inhibition of human TI-73 cell growth in a cell viability assay.

[33] = tested on: UO-31; assay type: functional, cell-based; conditions: Homo sapiens;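 note: cell viability assay measuring inhibition of cell growth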
Description: SANGER: Inhibition of human U031 cell growth in a cell viability assay.

[34] = tested on: CHP-212; assay type: functional, cell-based; conditions: Homo sapiens
Description: SANGER: Inhibition of human CHP-212 cell growth in a cell viability assay.

[35] = tested on: HCT-15; assay type: functional, cell-based; conditions: Homo sapiens;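 note: cell viability readout, IC50 reflecting suppression of HCT-15 cell growth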
Description: SANGER: Inhibition of human HCT-15 cell growth in a cell viability assay.

[36] = tested on: 23132-87; assay type: functional, cell-based; conditions: Homo sapiens
Description: SANGER: Inhibition of human 23132-87 cell growth in a cell viability assay.

[37] = tested on: EC-GI-10; assay type: functional, cell-based, Homo sapiens; conditions: Homo sapiens, EC-GI-10
Description: SANGER: Inhibition of human EC-GI-10 cell growth in a cell viability assay.

[38] = tested on: EW-24; assay type: functional, cell-based, Homo sapiens; conditions: Homo sapiens, EW-24;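 note: human EW-24 cancer cell line, growth inhibition read out via a cell viability assay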
Description: SANGER: Inhibition of human EW-24 cell growth in a cell viability assay.

[39] = tested on: KMOE-2; assay type: functional, cell-based, Homo sapiens; conditions: Homo sapiens, KMOE-2;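 note: growth inhibition of human KMOE-2 cells, read out with a cell viability assay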
Description: SANGER: Inhibition of human KMOE-2 cell growth in a cell viability assay.

Q: How did the IC50 [1] turn out when `O=C(NCCCNc1nc(Nc2cccc(NC(=O)N3CCCC3)c2)ncc1I)c1cccs1` [BX-795] was run?
A: 4.02 µM

Q: And the IC50 [2]?
A: > 5 µM

Q: What about the IC50 [3] of the same molecule?
A: > 5 µM

Q: And the IC50 [4]?
A: 1.57 µM

Q: And the IC50 [5]?
A: > 5 µM

Q: What about the IC50 [6] of the same molecule?
A: 3.02 µM

Q: What about the IC50 [7] of the same molecule?
A: > 5 µM

Q: And the IC50 [8]?
A: > 5 µM

Q: What about the IC50 [9] of the same molecule?
A: 2.12 µM

Q: And the IC50 [10]?
A: 1.44 µM

Q: And the IC50 [11]?
A: > 5 µM

Q: What about the IC50 [12] of the same molecule?
A: 2.56 µM

Q: What about the IC50 [13] of the same molecule?
A: > 5 µM

Q: And the IC50 [14]?
A: > 5 µM

Q: What about the IC50 [15] of the same molecule?
A: > 5 µM

Q: And the IC50 [16]?
A: 1.69 µM

Q: What about the IC50 [17] of the same molecule?
A: > 5 µM

Q: What about the IC50 [18] of the same molecule?
A: > 5 µM

Q: And the IC50 [19]?
A: 1.25 µM

Q: And the IC50 [20]?
A: > 5 µM

Q: And the IC50 [21]?
A: 4.01 µM

Q: And the IC50 [22]?
A: > 5 µM

Q: And the IC50 [23]?
A: > 5 µM

Q: What about the IC50 [24] of the same molecule?
A: 2.02 µM

Q: What about the IC50 [25] of the same molecule?
A: > 5 µM

Q: What about the IC50 [26] of the same molecule?
A: > 5 µM

Q: What about the IC50 [27] of the same molecule?
A: > 5 µM

Q: And the IC50 [28]?
A: > 5 µM

Q: What about the IC50 [29] of the same molecule?
A: 1.58 µM

Q: What about the IC50 [30] of the same molecule?
A: > 5 µM

Q: And the IC50 [31]?
A: 4.31 µM

Q: What about the IC50 [32] of the same molecule?
A: 2.11 µM

Q: What about the IC50 [33] of the same molecule?
A: > 5 µM

Q: And the IC50 [34]?
A: 1.14 µM

Q: `Cc1ccc(-n2nc(C(C)(C)C)cc2NC(=O)Nc2ccc(OCCN3CCOCC3)c3ccccc23)cc1` [DORAMAPIMOD] was tested. Which IC50 [1] did it give?
A: > 10 µM

Q: And the IC50 [2]?
A: > 10 µM

Q: What about the IC50 [3] of the same molecule?
A: > 10 µM

Q: And the IC50 [4]?
A: > 10 µM

Q: And the IC50 [5]?
A: > 10 µM

Q: And the IC50 [6]?
A: > 10 µM

Q: What about the IC50 [7] of the same molecule?
A: > 10 µM

Q: And the IC50 [35]?
A: > 10 µM

Q: What about the IC50 [8] of the same molecule?
A: > 10 µM

Q: What about the IC50 [9] of the same molecule?
A: > 10 µM

Q: And the IC50 [10]?
A: > 10 µM

Q: And the IC50 [11]?
A: > 10 µM

Q: What about the IC50 [12] of the same molecule?
A: > 10 µM

Q: And the IC50 [13]?
A: > 10 µM

Q: And the IC50 [14]?
A: > 10 µM

Q: What about the IC50 [15] of the same molecule?
A: > 10 µM

Q: What about the IC50 [16] of the same molecule?
A: > 10 µM

Q: And the IC50 [17]?
A: > 10 µM

Q: And the IC50 [18]?
A: > 10 µM

Q: What about the IC50 [19] of the same molecule?
A: > 10 µM

Q: What about the IC50 [20] of the same molecule?
A: > 10 µM

Q: And the IC50 [21]?
A: > 10 µM

Q: And the IC50 [22]?
A: > 10 µM

Q: What about the IC50 [23] of the same molecule?
A: > 10 µM

Q: What about the IC50 [24] of the same molecule?
A: > 10 µM

Q: And the IC50 [25]?
A: > 10 µM

Q: What about the IC50 [26] of the same molecule?
A: > 10 µM

Q: What about the IC50 [36] of the same molecule?
A: > 10 µM

Q: And the IC50 [27]?
A: > 10 µM

Q: And the IC50 [28]?
A: > 10 µM

Q: And the IC50 [29]?
A: > 10 µM

Q: What about the IC50 [30] of the same molecule?
A: > 10 µM

Q: What about the IC50 [31] of the same molecule?
A: > 10 µM

Q: What about the IC50 [32] of the same molecule?
A: > 10 µM

Q: And the IC50 [33]?
A: > 10 µM

Q: What about the IC50 [34] of the same molecule?
A: > 10 µM

Q: How did the IC50 [1] turn out when `CS(=O)(=O)N1CCN(Cc2cc3nc(-c4cccc5[nH]ncc45)nc(N4CCOCC4)c3s2)CC1` [PICTILISIB] was run?
A: 3.37 µM

Q: And the IC50 [2]?
A: 3.71 µM

Q: What about the IC50 [3] of the same molecule?
A: > 4 µM

Q: What about the IC50 [4] of the same molecule?
A: > 4 µM

Q: What about the IC50 [5] of the same molecule?
A: 0.687 µM

Q: And the IC50 [6]?
A: > 4 µM

Q: What about the IC50 [7] of the same molecule?
A: > 4 µM

Q: And the IC50 [8]?
A: > 4 µM

Q: What about the IC50 [9] of the same molecule?
A: 3.07 µM

Q: And the IC50 [10]?
A: 0.84 µM

Q: And the IC50 [11]?
A: > 4 µM

Q: And the IC50 [12]?
A: 0.206 µM

Q: What about the IC50 [13] of the same molecule?
A: 0.516 µM

Q: What about the IC50 [14] of the same molecule?
A: > 4 µM

Q: And the IC50 [15]?
A: 0.353 µM

Q: And the IC50 [16]?
A: 0.541 µM

Q: And the IC50 [17]?
A: > 4 µM

Q: What about the IC50 [18] of the same molecule?
A: 3.42 µM

Q: What about the IC50 [19] of the same molecule?
A: 0.489 µM

Q: What about the IC50 [20] of the same molecule?
A: 2.51 µM

Q: And the IC50 [21]?
A: > 4 µM

Q: And the IC50 [22]?
A: > 4 µM

Q: And the IC50 [23]?
A: 1.56 µM

Q: What about the IC50 [24] of the same molecule?
A: > 4 µM

Q: What about the IC50 [25] of the same molecule?
A: > 4 µM

Q: What about the IC50 [26] of the same molecule?
A: > 4 µM

Q: What about the IC50 [27] of the same molecule?
A: 2.59 µM

Q: And the IC50 [28]?
A: > 4 µM

Q: What about the IC50 [29] of the same molecule?
A: 0.545 µM

Q: What about the IC50 [30] of the same molecule?
A: > 4 µM

Q: And the IC50 [31]?
A: 2.03 µM

Q: And the IC50 [32]?
A: > 4 µM

Q: And the IC50 [33]?
A: > 4 µM

Q: What about the IC50 [34] of the same molecule?
A: 2.18 µM

Q: With `CN(NC(=O)CC(=O)NN(C)C(=S)c1ccccc1)C(=S)c1ccccc1` [ELESCLOMOL] as the molecule, how does the IC50 [1] read?
A: > 0.2 µM

Q: What about the IC50 [2] of the same molecule?
A: > 0.2 µM

Q: What about the IC50 [3] of the same molecule?
A: > 0.2 µM

Q: And the IC50 [4]?
A: 0.0171 µM

Q: And the IC50 [37]?
A: 0.0446 µM

Q: And the IC50 [5]?
A: 0.0291 µM

Q: What about the IC50 [38] of the same molecule?
A: 0.00383 µM

Q: And the IC50 [6]?
A: 0.027 µM

Q: And the IC50 [7]?
A: > 0.2 µM

Q: And the IC50 [35]?
A: 0.15 µM

Q: And the IC50 [8]?
A: 0.00993 µM

Q: What about the IC50 [9] of the same molecule?
A: 0.0154 µM

Q: What about the IC50 [10] of the same molecule?
A: 0.00302 µM

Q: And the IC50 [11]?
A: > 0.2 µM

Q: What about the IC50 [12] of the same molecule?
A: 0.0215 µM

Q: And the IC50 [39]?
A: 0.145 µM

Q: What about the IC50 [13] of the same molecule?
A: 0.00709 µM

Q: And the IC50 [14]?
A: > 0.2 µM

Q: What about the IC50 [15] of the same molecule?
A: > 0.2 µM

Q: And the IC50 [16]?
A: > 0.2 µM

Q: What about the IC50 [17] of the same molecule?
A: 0.0171 µM

Q: And the IC50 [18]?
A: 0.0263 µM

Q: And the IC50 [19]?
A: 0.00313 µM

Q: What about the IC50 [20] of the same molecule?
A: > 0.2 µM

Q: What about the IC50 [21] of the same molecule?
A: 0.0142 µM

Q: And the IC50 [22]?
A: > 0.2 µM

Q: And the IC50 [23]?
A: 0.0797 µM

Q: What about the IC50 [24] of the same molecule?
A: 0.108 µM

Q: And the IC50 [25]?
A: > 0.2 µM

Q: And the IC50 [26]?
A: 0.0135 µM

Q: What about the IC50 [36] of the same molecule?
A: 0.0249 µM

Q: What about the IC50 [27] of the same molecule?
A: 0.0129 µM

Q: And the IC50 [28]?
A: > 0.2 µM

Q: What about the IC50 [29] of the same molecule?
A: 0.00372 µM

Q: And the IC50 [30]?
A: 0.0334 µM

Q: What about the IC50 [31] of the same molecule?
A: 0.0133 µM

Q: And the IC50 [32]?
A: 0.0152 µM

Q: What about the IC50 [33] of the same molecule?
A: 0.0134 µM

Q: And the IC50 [34]?
A: 0.00734 µM
